Measured values taken from patent US6362337B1, “Substituted phenyluracils” (Bayer Aktiengesellschaft, priority 1997, dated 2002).

What was measured:
weeds [1] = assay: Post-emergence test, action against weeds; type: in vivo; conditions: test plants 5-15 cm sprayed, rated after three weeks vs untreated control
Protocol: (§1) To produce a suitable preparation of active compound, 1 part by weight of active compound is mixed with the stated amount of solvent, the stated amount of emulsifier is added and the concentrate is diluted with water to the desired concentration.
Test plants having a height of 5-15 cm are sprayed with the preparation of active compound such that the particular amounts of active compound desired are applied per unit area. The concentration of the spray liquor is chosen so that the particular amounts of active compound desired are applied in 1000 l of water/ha.
(§2) After three weeks, the degree of damage to the plants is rated in % damage in comparison with the development of the untreated control.
(§3) 0%=no effect (like untreated control)

weeds [2] = assay: Pre-emergence test, action against weeds; type: in vivo; conditions: soil sprayed about 24 hours after sowing, rated after three weeks vs untreated control
Protocol: as §1
Seeds of the test plants are sown in normal soil. After about 24 hours, the soil is sprayed with the preparation of active compound such that the particular amounts of active compound desired are applied per unit area. The concentration of the spray liquor is chosen so that the particular amounts of active compound desired are applied in 1000 l of water/ha.
as §2, §3

SMILES	melting point	action against weeds (degree of damage to the plants) (weeds [1])	action against weeds (degree of damage to the plants) (weeds [2])
CCOC(=O)c1cc(-n2c(=O)cc(C(F)(F)F)[nH]c2=O)ccc1OC(C)=O [Example 1, 3-(4-acetoxy-3-ethoxycarbonyl-phenyl)-6-trifluoromethyl-1,2,3,4-tetrahydro-1H-pyrimidine-2,4-dione]	155 °C		
CCOC(=O)c1cc(-n2c(=O)cc(C(F)(F)F)n(C)c2=O)ccc1OC(C)=O [Example 2, 3-(4-acetoxy-3-ethoxycarbonyl-phenyl)-1-methyl-6-trifluoromethyl-1,2,3,4-tetrahydro-1H-pyrimidine-2,4-dione]	148 °C	very strong action against weeds	very strong action against weeds
CCOC(=O)c1cc(-n2c(=O)cc(C(F)(F)F)n(N)c2=O)ccc1OC(C)=O [Example 3, 1-amino-3-(4-acetoxy-3-ethoxycarbonyl-phenyl)-6-trifluoromethyl-1,2,3,4-tetrahydro-1H-pyrimidine-2,4-dione]	190 °C	very strong action against weeds	very strong action against weeds
